# From patent US20240269139A1, “COMPOUNDS FOR TARGETED PROTEIN DEGRADATION OF KINASES” (DANA-FARBER CANCER INSTITUTE, INC., priority 2020, published 2024)
# Values joined by “and” are separate entries in the source; they are usually repeats but may differ in a detail not shown here. Equal entries are not always repeated. Where two headings read alike, the source gives them in different places.
# How the values were obtained:
# Type in all cases: cell-based
# [1] = biological target: protein kinases (human kinome) (Homo sapiens, UniProt P50613); details: for logFC: CDK7 (P50613) protein abundance, degrader vs DMSO, down; for logFC CDK7: CDK7 P50613
# [2] = biological target: protein kinases (human kinome) (Homo sapiens, UniProt Q00537); details: for logFC of CDK17: Accession Q00537; for logFC CDK17 (Q00537): direction of change down
# [3] = biological target: protein kinases (human kinome) (Homo sapiens, UniProt Q16584)
# [4] = biological target: protein kinases (human kinome) (Homo sapiens, UniProt Q9NYV4)
# [5] = biological target: protein kinases (human kinome) (Homo sapiens, UniProt O43683); details: for logFC: BUB1 (O43683); for logFC BUB1 (O43683): direction down
# [6] = biological target: protein kinases (human kinome) (Homo sapiens, UniProt P53667); details: LIMK1 (P53667-1)
# [7] = biological target: T1, protein kinases (human kinome) (Homo sapiens, UniProt Q12851); details: for logFC MAP4K2 (Q12851): direction down; for logFC: MAP4K2 (Q12851)
# T1 sequence (Q12851 1-820): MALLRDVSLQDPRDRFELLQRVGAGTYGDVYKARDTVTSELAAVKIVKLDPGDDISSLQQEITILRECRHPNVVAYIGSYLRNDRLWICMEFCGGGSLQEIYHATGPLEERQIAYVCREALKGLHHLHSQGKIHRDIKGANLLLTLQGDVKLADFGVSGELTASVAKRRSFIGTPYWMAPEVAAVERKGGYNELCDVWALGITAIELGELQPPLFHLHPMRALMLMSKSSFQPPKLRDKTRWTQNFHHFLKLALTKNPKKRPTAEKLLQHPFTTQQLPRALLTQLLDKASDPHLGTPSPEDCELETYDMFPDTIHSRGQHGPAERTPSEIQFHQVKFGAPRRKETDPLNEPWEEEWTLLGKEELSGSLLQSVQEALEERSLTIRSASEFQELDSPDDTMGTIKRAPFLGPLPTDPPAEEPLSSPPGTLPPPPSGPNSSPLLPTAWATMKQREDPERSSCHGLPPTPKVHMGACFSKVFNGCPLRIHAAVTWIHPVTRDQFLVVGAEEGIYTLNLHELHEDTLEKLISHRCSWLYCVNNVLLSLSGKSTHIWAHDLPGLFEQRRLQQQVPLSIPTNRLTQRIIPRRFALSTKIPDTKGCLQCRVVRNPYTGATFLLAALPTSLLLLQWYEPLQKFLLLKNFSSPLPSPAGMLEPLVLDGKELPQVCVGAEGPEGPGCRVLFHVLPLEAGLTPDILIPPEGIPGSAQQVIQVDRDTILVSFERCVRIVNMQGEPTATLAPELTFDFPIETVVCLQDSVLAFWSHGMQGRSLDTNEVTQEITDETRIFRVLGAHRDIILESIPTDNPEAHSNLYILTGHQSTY
# [8] = biological target: T2, protein kinases (human kinome) (Homo sapiens, UniProt Q8TAS1)
# T2 sequence (Q8TAS1 1-419): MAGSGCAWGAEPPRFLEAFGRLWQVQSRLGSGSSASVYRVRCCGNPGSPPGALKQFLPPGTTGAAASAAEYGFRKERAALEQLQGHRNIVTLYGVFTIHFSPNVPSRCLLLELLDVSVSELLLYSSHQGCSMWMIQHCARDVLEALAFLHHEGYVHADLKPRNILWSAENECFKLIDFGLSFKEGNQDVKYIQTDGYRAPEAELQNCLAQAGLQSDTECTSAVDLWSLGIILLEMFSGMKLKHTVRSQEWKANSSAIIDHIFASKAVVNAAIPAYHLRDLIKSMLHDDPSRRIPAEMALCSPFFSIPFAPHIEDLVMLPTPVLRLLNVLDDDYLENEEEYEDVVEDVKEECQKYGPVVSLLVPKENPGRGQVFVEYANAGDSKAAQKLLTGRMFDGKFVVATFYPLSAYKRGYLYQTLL
# [9] = biological target: protein kinases (human kinome) (Homo sapiens, UniProt Q9HBH9); details: for logFC MKNK2 (Q9HBH9): Experiment wp152; for logFC: MKNK2 (Q9HBH9-1)
# [10] = Accession Q9NYV4-1, experiment wp146
# [11] = CDK12 (Q9NYV4-1), experiment wp146
# Sequence of protein kinases (human kinome) (Homo sapiens, UniProt P53667) (P53667 whole entry): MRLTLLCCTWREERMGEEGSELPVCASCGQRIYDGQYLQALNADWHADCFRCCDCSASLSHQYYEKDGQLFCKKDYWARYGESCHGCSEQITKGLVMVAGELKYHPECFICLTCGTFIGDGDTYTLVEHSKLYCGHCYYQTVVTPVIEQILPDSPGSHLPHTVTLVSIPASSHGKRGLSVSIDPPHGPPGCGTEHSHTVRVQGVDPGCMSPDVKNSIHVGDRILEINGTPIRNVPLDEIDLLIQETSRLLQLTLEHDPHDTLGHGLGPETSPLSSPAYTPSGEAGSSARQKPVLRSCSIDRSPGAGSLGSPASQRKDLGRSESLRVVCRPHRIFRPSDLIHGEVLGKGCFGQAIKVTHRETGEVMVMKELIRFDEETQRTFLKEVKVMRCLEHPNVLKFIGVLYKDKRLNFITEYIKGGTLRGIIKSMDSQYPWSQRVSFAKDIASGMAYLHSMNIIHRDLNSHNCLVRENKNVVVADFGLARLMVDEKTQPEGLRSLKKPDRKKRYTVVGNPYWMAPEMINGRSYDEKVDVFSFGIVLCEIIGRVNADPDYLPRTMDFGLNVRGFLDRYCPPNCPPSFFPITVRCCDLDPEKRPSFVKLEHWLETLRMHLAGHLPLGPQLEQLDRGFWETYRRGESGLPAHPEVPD
# Sequence of protein kinases (human kinome) (Homo sapiens, UniProt P50613) (P50613 whole entry): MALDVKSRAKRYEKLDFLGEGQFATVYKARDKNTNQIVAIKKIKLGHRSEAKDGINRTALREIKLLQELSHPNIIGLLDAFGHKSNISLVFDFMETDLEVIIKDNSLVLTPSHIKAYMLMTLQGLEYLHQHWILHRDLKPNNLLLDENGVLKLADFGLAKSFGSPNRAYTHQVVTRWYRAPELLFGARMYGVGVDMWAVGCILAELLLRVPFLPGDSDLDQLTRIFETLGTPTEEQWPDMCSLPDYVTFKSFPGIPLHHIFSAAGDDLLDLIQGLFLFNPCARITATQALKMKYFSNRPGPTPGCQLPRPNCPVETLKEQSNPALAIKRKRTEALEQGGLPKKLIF
# Sequence of protein kinases (human kinome) (Homo sapiens, UniProt Q9NYV4) (Q9NYV4 whole entry): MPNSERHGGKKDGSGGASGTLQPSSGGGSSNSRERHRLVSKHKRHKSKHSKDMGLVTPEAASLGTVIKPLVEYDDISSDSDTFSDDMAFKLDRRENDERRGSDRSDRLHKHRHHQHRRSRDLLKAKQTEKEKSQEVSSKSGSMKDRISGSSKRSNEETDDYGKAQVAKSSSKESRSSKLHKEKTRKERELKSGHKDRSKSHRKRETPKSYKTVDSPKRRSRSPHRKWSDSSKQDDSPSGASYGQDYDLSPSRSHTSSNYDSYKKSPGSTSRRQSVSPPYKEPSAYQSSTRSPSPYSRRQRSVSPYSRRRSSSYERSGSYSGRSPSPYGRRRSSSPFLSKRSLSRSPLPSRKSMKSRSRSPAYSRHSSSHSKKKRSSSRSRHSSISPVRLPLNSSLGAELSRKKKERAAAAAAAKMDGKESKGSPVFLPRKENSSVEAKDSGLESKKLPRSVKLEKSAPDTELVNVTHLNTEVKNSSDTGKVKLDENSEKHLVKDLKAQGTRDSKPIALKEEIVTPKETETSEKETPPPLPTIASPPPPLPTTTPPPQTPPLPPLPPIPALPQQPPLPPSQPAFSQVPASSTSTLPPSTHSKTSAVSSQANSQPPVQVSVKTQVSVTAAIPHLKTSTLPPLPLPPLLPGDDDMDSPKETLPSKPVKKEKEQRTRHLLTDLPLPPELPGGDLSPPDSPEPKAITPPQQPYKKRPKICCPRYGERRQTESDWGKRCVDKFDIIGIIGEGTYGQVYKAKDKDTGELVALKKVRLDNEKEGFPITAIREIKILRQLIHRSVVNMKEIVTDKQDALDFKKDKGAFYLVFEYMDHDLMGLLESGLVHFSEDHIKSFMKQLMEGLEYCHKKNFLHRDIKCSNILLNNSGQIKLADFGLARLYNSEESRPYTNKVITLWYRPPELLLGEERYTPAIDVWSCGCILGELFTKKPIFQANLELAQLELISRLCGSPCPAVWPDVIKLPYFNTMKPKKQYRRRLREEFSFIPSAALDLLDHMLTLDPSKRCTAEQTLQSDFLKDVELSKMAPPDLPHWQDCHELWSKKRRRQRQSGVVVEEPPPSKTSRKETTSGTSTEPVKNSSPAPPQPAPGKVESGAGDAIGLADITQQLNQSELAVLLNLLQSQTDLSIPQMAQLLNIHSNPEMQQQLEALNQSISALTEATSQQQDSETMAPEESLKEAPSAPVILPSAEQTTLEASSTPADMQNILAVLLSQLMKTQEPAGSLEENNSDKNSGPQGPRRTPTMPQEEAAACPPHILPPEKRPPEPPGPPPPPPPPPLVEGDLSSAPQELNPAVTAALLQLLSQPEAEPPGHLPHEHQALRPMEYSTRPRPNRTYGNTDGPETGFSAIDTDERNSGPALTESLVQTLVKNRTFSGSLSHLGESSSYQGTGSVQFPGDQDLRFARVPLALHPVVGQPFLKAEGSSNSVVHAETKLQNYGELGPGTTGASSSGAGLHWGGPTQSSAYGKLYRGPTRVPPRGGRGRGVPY
# Sequence of protein kinases (human kinome) (Homo sapiens, UniProt Q16584) (Q16584 whole entry): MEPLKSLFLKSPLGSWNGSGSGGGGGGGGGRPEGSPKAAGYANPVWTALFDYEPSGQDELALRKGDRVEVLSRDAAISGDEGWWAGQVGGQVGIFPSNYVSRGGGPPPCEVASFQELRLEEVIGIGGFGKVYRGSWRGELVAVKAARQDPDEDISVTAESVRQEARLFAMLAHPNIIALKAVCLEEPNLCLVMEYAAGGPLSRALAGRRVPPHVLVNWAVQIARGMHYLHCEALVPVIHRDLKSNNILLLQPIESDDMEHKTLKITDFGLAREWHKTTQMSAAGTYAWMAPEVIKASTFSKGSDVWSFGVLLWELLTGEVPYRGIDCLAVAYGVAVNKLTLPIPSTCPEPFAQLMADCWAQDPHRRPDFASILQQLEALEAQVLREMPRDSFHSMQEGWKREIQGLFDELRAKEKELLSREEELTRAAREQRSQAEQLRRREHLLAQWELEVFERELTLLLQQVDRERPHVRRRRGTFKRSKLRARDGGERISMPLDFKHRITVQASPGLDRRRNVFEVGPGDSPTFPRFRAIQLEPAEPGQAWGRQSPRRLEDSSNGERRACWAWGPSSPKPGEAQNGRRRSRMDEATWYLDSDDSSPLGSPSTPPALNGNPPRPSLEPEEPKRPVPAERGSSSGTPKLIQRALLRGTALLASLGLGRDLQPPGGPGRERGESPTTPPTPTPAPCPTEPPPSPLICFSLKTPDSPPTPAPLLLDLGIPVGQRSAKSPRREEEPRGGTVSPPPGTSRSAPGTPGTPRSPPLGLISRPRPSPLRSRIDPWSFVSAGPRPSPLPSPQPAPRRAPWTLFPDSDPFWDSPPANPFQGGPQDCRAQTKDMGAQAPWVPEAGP
# Sequence of protein kinases (human kinome) (Homo sapiens, UniProt Q9HBH9) (Q9HBH9 whole entry): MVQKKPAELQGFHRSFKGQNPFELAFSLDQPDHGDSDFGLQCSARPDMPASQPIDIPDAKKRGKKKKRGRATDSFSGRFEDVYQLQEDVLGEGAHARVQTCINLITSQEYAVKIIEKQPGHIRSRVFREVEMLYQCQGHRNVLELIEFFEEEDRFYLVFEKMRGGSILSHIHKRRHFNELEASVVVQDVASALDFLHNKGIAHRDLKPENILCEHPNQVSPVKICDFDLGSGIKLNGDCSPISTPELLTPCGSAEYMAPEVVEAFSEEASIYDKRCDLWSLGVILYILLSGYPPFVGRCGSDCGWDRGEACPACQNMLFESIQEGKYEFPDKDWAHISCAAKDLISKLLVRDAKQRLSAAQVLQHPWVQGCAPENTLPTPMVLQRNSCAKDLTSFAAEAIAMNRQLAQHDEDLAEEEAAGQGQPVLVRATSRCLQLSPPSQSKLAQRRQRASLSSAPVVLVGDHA
# Sequence of protein kinases (human kinome) (Homo sapiens, UniProt O43683) (O43683 whole entry): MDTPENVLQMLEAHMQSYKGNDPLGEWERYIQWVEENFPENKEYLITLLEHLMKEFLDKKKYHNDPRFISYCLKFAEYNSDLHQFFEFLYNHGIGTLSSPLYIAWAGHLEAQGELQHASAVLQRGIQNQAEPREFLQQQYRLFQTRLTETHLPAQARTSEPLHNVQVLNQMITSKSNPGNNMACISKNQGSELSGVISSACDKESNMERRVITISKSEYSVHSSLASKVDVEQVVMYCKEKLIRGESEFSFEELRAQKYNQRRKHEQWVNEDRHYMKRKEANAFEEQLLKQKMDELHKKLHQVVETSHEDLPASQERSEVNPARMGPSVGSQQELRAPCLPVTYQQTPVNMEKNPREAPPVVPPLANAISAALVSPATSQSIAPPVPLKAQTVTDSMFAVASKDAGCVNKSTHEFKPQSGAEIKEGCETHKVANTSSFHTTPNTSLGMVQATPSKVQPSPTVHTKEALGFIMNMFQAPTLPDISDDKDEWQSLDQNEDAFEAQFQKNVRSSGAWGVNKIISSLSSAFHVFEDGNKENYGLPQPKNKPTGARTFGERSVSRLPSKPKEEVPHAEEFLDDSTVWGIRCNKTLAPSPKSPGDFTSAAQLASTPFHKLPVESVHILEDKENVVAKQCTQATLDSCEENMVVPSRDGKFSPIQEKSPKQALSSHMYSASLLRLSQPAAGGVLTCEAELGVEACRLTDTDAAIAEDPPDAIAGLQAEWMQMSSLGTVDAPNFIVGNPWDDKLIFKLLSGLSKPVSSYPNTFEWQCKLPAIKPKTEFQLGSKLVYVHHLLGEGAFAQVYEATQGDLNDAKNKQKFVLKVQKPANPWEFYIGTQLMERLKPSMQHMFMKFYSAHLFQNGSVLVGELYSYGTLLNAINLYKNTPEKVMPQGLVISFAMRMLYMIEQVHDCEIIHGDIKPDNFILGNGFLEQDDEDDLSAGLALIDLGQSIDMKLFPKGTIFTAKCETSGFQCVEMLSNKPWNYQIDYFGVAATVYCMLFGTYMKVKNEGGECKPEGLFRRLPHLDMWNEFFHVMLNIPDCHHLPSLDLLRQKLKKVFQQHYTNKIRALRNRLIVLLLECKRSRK
smiles,measurement,setting,value
Cc1cc(Nc2ncc(Br)c(Nc3cccc(F)c3C(N)=O)n2)ccc1S(=O)(=O)NCCOCCOCCOCCOCCNc1cccc2c1C(=O)N(C1CCC(=O)NC1=O)C2=O (stereo not drawn) [TMX.02.174],logFC,[1],−0.584
same,logFC CDK7,[1]; experiment wp146,−0.584
same,logFC of CDK17,[2]; experiment wp146,−1.42
same,logFC CDK17 (Q00537),[2]; experiment wp146,−1.42
same,logFC MAP3K11 (Q16584),[3]; experiment wp146,−1.874
same,logFC CDK12,[4]; [10],−0.8562
same,logFC CDK12,[4]; [11],−0.8562
"Cc1ccc(NC(=O)c2cccc(C(F)(F)F)c2)cc1N1Cc2cnc(Nc3ccc(N4CCN(Cc5cn(CCCCCOc6cccc7c6C(=O)N(C6CCC(=O)NC6=O)C7=O)nn5)CC4)nc3)nc2N(C)C1=O (stereo not drawn) [DB0646, N-(3-(7-((6-(4-((1-(5-((2-(2,6-Dioxopiperidin-3-yl)-1,3-dioxoisoindolin-4-yl)oxy)pentyl)-1H-1,2,3-triazol-4-yl)methyl)piperazin-1-v)pyridin-3-yl)amino)-1-methyl-2-oxo-1,4-dihydropyrimido[4,5-d]pyrimidin-3(2H)-yl)-4-methylphenyl)-3-(trifluoromethyl)benzamide]",logFC,[5]; experiment wp045,−0.3378
same,logFC,[5]; experiment wp117,−0.3423
same,logFC,[5]; experiment wp152,−0.4014
same,logFC BUB1 (O43683),[5]; Experiment wp045,−0.3378
same,logFC BUB1 (O43683),[5]; Experiment wp117,−0.3423
same,logFC BUB1 (O43683),[5]; Experiment wp152,−0.4014
same,BUB1 degradation,[5]; MOLT-4 and MM.1S cell lines,degraded
same,logFC LIMK1,"[6]; direction down, experiment wp045",−0.5293
same,logFC LIMK1,"[6]; direction down, experiment wp103",−1.497
same,logFC LIMK1,"[6]; direction down, experiment wp105",−0.5641
same,logFC LIMK1,"[6]; direction down, experiment wp107",−0.9768
same,logFC LIMK1,"[6]; direction down, experiment wp117",−1.412
same,logFC LIMK1,"[6]; direction down, experiment wp160, 2 hr",−0.7376
same,logFC LIMK1,"[6]; direction down, experiment wp160, 4 hr",−1.563
same,logFC LIMK1,"[6]; direction down, experiment wp160, 8 hr",−2.36
same,logFC LIMK1,"[6]; direction down, experiment wp172",−1.32
same,logFC LIMK1,"[6]; experiment wp045, down",−0.5293
same,logFC LIMK1,"[6]; experiment wp103, down",−1.497
same,logFC LIMK1,"[6]; experiment wp105, down",−0.5641
same,logFC LIMK1,"[6]; experiment wp107, down",−0.9768
same,logFC LIMK1,"[6]; experiment wp117, down",−1.412
same,logFC LIMK1,"[6]; experiment wp160, 2 hr, down",−0.7376
same,logFC LIMK1,"[6]; experiment wp160, 4 hr, down",−1.563
same,logFC LIMK1,"[6]; experiment wp160, 8 hr, down",−2.36
same,logFC LIMK1,"[6]; experiment wp172, down",−1.32
same,logFC MAP4K2 (Q12851),[7]; Experiment wp045,−0.7569
same,logFC MAP4K2 (Q12851),[7]; Experiment wp103,−0.4625
same,logFC MAP4K2 (Q12851),[7]; Experiment wp107,−0.6245
same,logFC MAP4K2 (Q12851),[7]; Experiment wp117,−0.5616
same,logFC MAP4K2 (Q12851),[7]; Experiment wp152,−0.7981
same,logFC MAP4K2 (Q12851),"[7]; Experiment wp160, 4 hr",−0.6132
same,logFC MAP4K2 (Q12851),"[7]; Experiment wp160, 8 hr",−1.155
same,logFC,[7]; experiment wp045,−0.7569
same,logFC,[7]; experiment wp103,−0.4625
same,logFC,[7]; experiment wp107,−0.6245
same,logFC,[7]; experiment wp117,−0.5616
same,logFC,[7]; experiment wp152,−0.7981
same,logFC,"[7]; experiment wp160, 4 hr",−0.6132
same,logFC,"[7]; experiment wp160, 8 hr",−1.155
same,logFC MAP3K11 (Q16584),[3]; experiment wp107,−0.5077
same,logFC MAP3K11 (Q16584),[3]; experiment wp117,−0.4308
same,logFC UHMK1,"[8]; Accession Q8TAS1, experiment wp107, direction down",−0.3263
same,logFC UHMK1,"[8]; Accession Q8TAS1, experiment wp117, direction down",−0.4722
same,logFC UHMK1,"[8]; Accession Q8TAS1, experiment wp160, 2 hr, direction down",−0.4468
same,logFC UHMK1,"[8]; Accession Q8TAS1, experiment wp160, 4 hr, direction down",−0.7551
same,logFC UHMK1,"[8]; Accession Q8TAS1, experiment wp160, 8 hr, direction down",−0.5196
same,logFC UHMK1,"[8]; UHMK1 (Q8TAS1), experiment wp045",−0.3945
same,logFC UHMK1,"[8]; UHMK1 (Q8TAS1), experiment wp107",−0.3263
same,logFC UHMK1,"[8]; UHMK1 (Q8TAS1), experiment wp117",−0.4722
same,logFC UHMK1,"[8]; UHMK1 (Q8TAS1), experiment wp160, 2 hr",−0.4468
same,logFC UHMK1,"[8]; UHMK1 (Q8TAS1), experiment wp160, 4 hr",−0.7551
same,logFC UHMK1,"[8]; UHMK1 (Q8TAS1), experiment wp160, 8 hr",−0.5196
same,logFC UHMK1 (Q8TAS1),[8]; experiment wp045,−0.3945
same,logFC MKNK2 (Q9HBH9-1),"[9]; Experiment wp045, direction down",−0.4463
same,logFC MKNK2 (Q9HBH9-1),"[9]; Experiment wp117, direction down",−0.3794
same,logFC MKNK2 (Q9HBH9),[9]; direction down,−0.4447
same,logFC MKNK2 (Q9HBH9),[9]; direction of change down,−0.4447
same,logFC MKNK2 (Q9HBH9-1),"[9]; Experiment wp160, 4 hr, direction down",−0.5226
same,logFC MKNK2 (Q9HBH9-1),"[9]; Experiment wp160, 8 hr, direction down",−0.6422
same,logFC,[9]; experiment wp045,−0.4463
same,logFC,[9]; experiment wp117,−0.3794
same,logFC,"[9]; experiment wp160, 4 hr",−0.5226
same,logFC,"[9]; experiment wp160, 8 hr",−0.6422
CC(C)S(=O)(=O)c1ccccc1Nc1nc(Nc2ccc(N3CCN(CCOCCOCCNC(=O)CNc4cccc5c4C(=O)N(C4CCC(=O)NC4=O)C5=O)CC3)cc2)ncc1Cl (stereo not drawn) [TL12.186],logFC,[5]; experiment wp131,−0.4983
same,logFC,[5]; experiment wp137,−0.4422
same,logFC BUB1 (O43683),[5]; Experiment wp131,−0.4983
same,logFC BUB1 (O43683),[5]; Experiment wp137,−0.4422
same,logFC,[1],−0.7603 and −0.6447 and −0.7438
same,logFC CDK7,[1]; experiment wp016,−0.7603
same,logFC CDK7,[1]; experiment wp131,−0.6447
same,logFC CDK7,[1]; experiment wp137,−0.7438
same,logFC LIMK1,"[6]; direction down, experiment wp131",−1.055
same,logFC LIMK1,"[6]; direction down, experiment wp137",−0.8734
same,logFC LIMK1,"[6]; experiment wp131, down",−1.055
same,logFC LIMK1,"[6]; experiment wp137, down",−0.8734
same,logFC of CDK17,[2]; experiment wp016,−0.84
same,logFC of CDK17,[2]; experiment wp131,−0.6165
same,logFC CDK17 (Q00537),[2]; experiment wp016,−0.84
same,logFC CDK17 (Q00537),[2]; experiment wp131,−0.6165
same,logFC MAP3K11 (Q16584),[3]; experiment wp131,−1.795
same,logFC MAP3K11 (Q16584),[3]; experiment wp137,−1.493
same,logFC CDK12,"[4]; Accession Q9NYV4-1, experiment wp016",−0.9185
same,logFC CDK12,"[4]; Accession Q9NYV4-1, experiment wp131",−1.402
same,logFC CDK12,"[4]; CDK12 (Q9NYV4-1), experiment wp016",−0.9185
same,logFC CDK12,"[4]; CDK12 (Q9NYV4-1), experiment wp131",−1.402
NC(=O)c1c(F)cccc1Nc1nc(Nc2ccc(S(=O)(=O)NCCOCCOCCOCCOCCNc3cccc4c3C(=O)N(C3CCC(=O)NC3=O)C4=O)cc2)ncc1Br (stereo not drawn) [TMX.02.138],logFC,[1],−0.5239
same,logFC CDK7,[1]; experiment wp146,−0.5239
same,logFC of CDK17,[2]; experiment wp146,−1.361
same,logFC CDK17 (Q00537),[2]; experiment wp146,−1.361
same,logFC MAP3K11 (Q16584),[3]; experiment wp146,−0.9241
same,logFC CDK12,[4]; [10],−1.018
same,logFC CDK12,[4]; [11],−1.018
